Like-named read-outs stand apart in the source and are kept apart here.
Format: physicochemical
Protocol: A 10 mL solution of M4N at a concentration of about 10 mg/mL in 40% BP-β-CD was made as follows. About 10 mL of the 40% HP-β-CD solution were added to a glass beaker containing a stir bar. The beaker was placed on a magnetic plate and the stir bar was set to stir at medium speed. About […] of M4N were slowly added to the 40% HP-β-CD in the center of the beaker with the aid of a spatula. The M4N/40% HP-β-CD mixture was stirred for 2 hr or until all M4N was uniformly suspended without any clumps being present. The M4N/40% HP-β-CD mixture was optionally heated at 80° C. for about 30 min. (or longer if a larger volume of solution was desired, for example, 1 hr at 80° C. for 100 mL of the M4N/HP-β-CD mixture), or longer as needed to ensure complete dissolution of M4N. […] The final M4N/40% HP-β-CD solution was stored at room temperature and was kept protected from light. This process may be scaled up or down to obtain the requisite volume or concentration of M4N. Formulations containing M4N in other cyclodextrin solutions may be similarly made, such as, for example, by substituting HP-β-CD in the process described above with other cyclodextrins. […]
A 10 mL solution of M4N at a concentration of about 10 mg/mL in 50% HP-β-CD/0.5% HPMC was made as follows. About 10 mL of the 50% HP-β-CD/0.5% HPMC solution were added to a glass beaker containing a stir bar. The beaker was placed on a magnetic plate and the stir bar was set to stir at medium speed. About 100 mg of M4N were slowly added to the 50% HP-β-CD/0.5% HPMC in the center of the beaker with the aid of a spatula. The M4N/50% HP-β-CD/0.5% HPMC mixture was stirred for 24 hr or until all M4N was uniformly suspended without any clumps being present. The M4N/50% HP-β-CD/0.5% HPMC mixture was heated at about 90° C. for about 30 min. (or longer if a larger volume of solution was desired, for example, 1 hr at 90° C. for 500 mL of the M4N/50% HP-β-CD/0.5% HPMC mixture), or longer as needed to ensure complete dissolution of M4N. […] The final M4N/50% HP-β-CD/0.5% HPMC solution was stored at room temperature and was kept protected from light.
A 10 mL solution of M4N at a concentration of about 20 mg/mL in 5% EC (w/v) (the “EC formulation”) was made as follows. About 10 mL of 5% EC formulation, made as described above, were added to a glass beaker containing a stir bar. The beaker was placed on a magnetic plate and the stir bar was set to stir at medium speed, and covered with a round Teflon® cover. About 200 mg of M4N were slowly added to the 5% EC formulation in the center of the beaker with the aid of a spatula to prevent M4N from sticking to the beaker wall. The M4N/EC mixture was stirred for 2 hr or until all M4N had dissolved or was uniformly suspended without any clumps being present. The M4N/EC mixture was heated at about 60° C. for about 30 min. (or longer if a larger volume of solution was desired, for example, 1 hr at 60° C. for 500 mL of the M4N/EC mixture), or longer as needed to ensure complete dissolution of M4N. […] The final M4N/EC solution was stored at room temperature and was kept protected from light.
A 10 mL solution of M4N at a concentration of about 50 mg/mL in sesame oil was made as follows. About 10 mL of sesame oil were added to a glass beaker containing a stir bar. The beaker was placed on a magnetic plate and the stir bar was set to stir at medium speed. About 500 mg of M4N were slowly added to the sesame oil in the center of the beaker with the aid of a spatula to prevent M4N from sticking to the beaker wall. The M4N/sesame oil mixture was stirred for about 2 hr or until all M4N had dissolved or was uniformly suspended without any clump being present. The M4N/sesame oil mixture was heated at about 60° C. for about 30 min. (or longer if a larger volume of solution was desired, for example, 1 hr at 60° C. for 500 mL of the M4N/sesame oil mixture), or longer as need to ensure complete dissolution of M4N. […]

[1] = M4N 10 mg/mL in 32% HP-β-CD, 20% PEG 400 (v/v)
[2] = M4N 10 mg/mL in 40% HP-β-CD, 1% PVP (w/v)
[3] = M4N 10 mg/mL in 40% HP-β-CD, 5% PEG 400 (v/v)
[4] = M4N 10 mg/mL in 50% HP-β-CD in saline
[5] = M4N 10 mg/mL in 50% HP-β-CD, 0.5% HPMC
[6] = M4N 10 mg/mL in 50% HP-β-CD, 1.25% PVP (w/v)
[7] = M4N 12.5 mg/mL in 12.5% HP-β-CD, 50% PEG 300 (v/v)
[8] = M4N 12.5 mg/mL in 12.5% HP-β-CD, 50% PEG 400 (v/v)
[9] = M4N 12.5 mg/mL in 15% HP-β-CD, 50% PEG 300 (v/v)
[10] = M4N 12.5 mg/mL in 15% HP-β-CD, 50% PEG 400 (v/v)
[11] = M4N 12.5 mg/mL in 20% HP-β-CD, 50% PEG 300 (v/v)
[12] = M4N 12.5 mg/mL in 20% HP-β-CD, 50% PEG 400 (v/v)
[13] = M4N 12.5 mg/mL in 30% HP-β-CD, 25% PEG 400 (v/v)
[14] = M4N 12.9 mg/mL in 23% HP-β-CD, 43% PEG 400 (v/v)
[15] = M4N 12.9 mg/mL in 23% HP-β-CD, 43 PEG 300 (v/v)
[16] = M4N 13.3 mg/mL in 27% HP-β-CD, 33% PEG 300 (v/v)
For Dissolution After Cool Down in this document: key: N represents 'No'; Y represents 'Yes.'.

COc1ccc(C[C@@H](C)[C@@H](C)Cc2ccc(OC)c(OC)c2)cc1OC [Formulation M4N, meso-1,4-bis(3,4-dimethoxyphenyl)-2,3-dimethylbutane]
Y at 90°: Dissolution After Heating at X° C. (M4N 10 mg/mL in 50% HP-β-CD in saline, 90°) | Dissolution After Heating at X° C. (M4N 10 mg/mL in 50% HP-β-CD, 90°)
Y at 60 °C: Dissolution After Heating at X° C. (M4N 12.9 mg/mL in 23% HP-β-CD, 43% PEG 400 (v/v), 60° C.)
Y: Dissolution After Cool Down [1] | Dissolution After Cool Down (M4N 10 mg/mL in 40% HP-β-CD) | Dissolution After Cool Down (M4N 10 mg/mL in 50% HP-β-CD) | Dissolution After Cool Down [4] | Dissolution After Cool-Down [5] | Dissolution After Cool-Down (M4N 10 mg/mL in Corn Oil) | Dissolution After Cool-Down (M4N 10 mg/mL in Mineral Oil) | Dissolution After Cool-Down (M4N 10 mg/mL in Soybean Oil) | Dissolution After Cool Down [7] | Dissolution After Cool Down [8] | Dissolution After Cool Down [9] | Dissolution After Cool Down [10] | Dissolution After Cool Down [11] | Dissolution After Cool Down [12] | Dissolution After Cool Down [13] | Dissolution After Cool Down [14] | Dissolution After Cool Down [15] | Dissolution After Cool Down [16]
Suspension: Dissolution After Rotation (M4N 10 mg/mL in 50% HP-β-CD, 0.5% HPMC, other experiment, no heat)
N at 80°: Dissolution After Heating at X° C. (M4N 10 mg/mL in 40% HP-β-CD, 2.5% PG (v/v), 80°) | Dissolution After Heating at X° C. (M4N 12 mg/mL in 40% HP-β-CD, 80°)
N: Dissolution After Rotation [1] | Dissolution After Rotation (M4N 10 mg/mL in 40% HP-β-CD) | Dissolution After Heating at X° C. [2] | Dissolution After Rotation [2] | Dissolution After Rotation (M4N 10 mg/mL in 40% HP-β-CD, 2.5% PG (v/v)) | Dissolution After Cool Down [3] | Dissolution After Rotation [3] | Dissolution After Rotation (M4N 10 mg/mL in 50% HP-β-CD) | Dissolution After Rotation [4] | Dissolution After Rotation [5] | Dissolution After Heating at X° C. [6] | Dissolution After Rotation [6] | Dissolution After Rotation (M4N 12 mg/mL in 40% HP-β-CD) | Dissolution After Rotation [7] | Dissolution After Rotation [8] | Dissolution After Rotation [9] | Dissolution After Rotation [10] | Dissolution After Rotation [11] | Dissolution After Rotation [12] | Dissolution After Rotation [13] | Dissolution After Rotation [14] | Dissolution After Rotation [15] | Dissolution After Rotation [16]
Y at 60°: Dissolution After Heating at X° C. (M4N 10 mg/mL in 32% HP-β-CD, 20% PEG 400 (v/v), 60°) | Dissolution After Heating at X° C. (M4N 10 mg/mL in 40% HP-β-CD, 5% PEG 400 (v/v), 60°) | Dissolution After Heating at X° C. (M4N 12.5 mg/mL in 12.5% HP-β-CD, 50% PEG 300 (v/v), 60°) | Dissolution After Heating at X° C. (M4N 12.5 mg/mL in 12.5% HP-β-CD, 50% PEG 400 (v/v), 60°) | Dissolution After Heating at X° C. (M4N 12.5 mg/mL in 15% HP-β-CD, 50% PEG 300 (v/v), 60°) | Dissolution After Heating at X° C. (M4N 12.5 mg/mL in 15% HP-β-CD, 50% PEG 400 (v/v), 60°) | Dissolution After Heating at X° C. (M4N 12.5 mg/mL in 20% HP-β-CD, 50% PEG 300 (v/v), 60°) | Dissolution After Heating at X° C. (M4N 12.5 mg/mL in 20% HP-β-CD, 50% PEG 400 (v/v), 60°) | Dissolution After Heating at X° C. (M4N 12.5 mg/mL in 30% HP-β-CD, 25% PEG 400 (v/v), 60°) | Dissolution After Heating at X° C. (M4N 12.9 mg/mL in 23% HP-β-CD, 43 PEG 300 (v/v), 60°) | Dissolution After Heating at X° C. (M4N 13.3 mg/mL in 27% HP-β-CD, 33% PEG 300 (v/v), 60°)
Y at 80°: Dissolution After Heating at X° C. (M4N 10 mg/mL in 40% HP-β-CD, 80°)

Source: patent publication US20090022803A1, “Oral Formulations For Delivery of Catecholic Butanes Including Ndga Compounds” (priority 2005, published 2009)
